Literature values, collected in paper PMC4610388 (European journal of medicinal chemistry, 2015).

Legend:
[1] = system: mammalian dihydrofolate reductases
E. coli DHFR = E. coli DHFR (Escherichia coli, UniProt P0ABQ4); details: previous study from the authors' lab
E. coli DHFR, sequence (P0ABQ4 whole entry): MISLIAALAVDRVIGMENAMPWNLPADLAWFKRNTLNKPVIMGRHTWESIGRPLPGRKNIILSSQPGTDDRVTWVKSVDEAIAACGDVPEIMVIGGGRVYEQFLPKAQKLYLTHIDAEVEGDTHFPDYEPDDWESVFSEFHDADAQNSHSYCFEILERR

| Compound | inhibition of mammalian dihydrofolate reductases [1] | slow-onset tight binding behaviour (E. coli DHFR) |
| --- | --- | --- |
| Nc1nnc(-c2cccc(Cl)c2Cl)c(N)n1 [Lamotrigine, 6-(2,3-dichlorophenyl)-1,2,4-triazine-3,5-diamine] | weakly inhibit |  |
| Nc1nc(N)c2c(ccc3[nH]ccc32)n1 [NSC339578, 7H–pyrrolo [3,2-f] quinazoline-1,3-diamine] |  | does not show slow-onset of inhibition |
